Experimental data from ChEMBL document CHEMBL1201862, “PubChem BioAssay data set” (2004).
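Step 1: Grow cells in 96-well plates. Step 2: Expose to compound for 48 hours at 5 concentrations. Step 3: Interpolate endpoints linearly; if unreached, use highest concentration. GI50: concentration for 50% inhibition of growth.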 Calls of active or inactive are those of the source. Rule as the data show it: active = GI50 up to about 1.1 µM and inactive = higher.

Tests used:
Experiment in all cases: NCI anticancer screen, dose series, 48 h
ACHN = test system: ACHN
HCT-116 = test system: HCT-116
HCT-15 = test system: HCT-15
HOP-62 = test system: HOP-62
HT-29 = test system: HT-29
IGROV-1 = test system: IGROV-1
LOX IMVI = test system: LOX IMVI
M14 = test system: M14
NCI-H522 = test system: NCI-H522
OVCAR-3 = test system: OVCAR-3
OVCAR-5 = test system: OVCAR-5
OVCAR-8 = test system: OVCAR-8
SF-268 = test system: SF-268
SK-MEL-28 = test system: SK-MEL-28
SK-MEL-2 = test system: SK-MEL-2
SN12C = test system: SN12C
SNB-19 = test system: SNB-19
A498 = test system: A498

Row | Compound | GI50 (ACHN) | GI50 (HCT-116) | GI50 (HCT-15) | GI50 (HOP-62) | GI50 (HT-29) | GI50 (IGROV-1) | GI50 (LOX IMVI) | GI50 (M14) | GI50 (NCI-H522) | GI50 (OVCAR-3) | GI50 (OVCAR-5) | GI50 (OVCAR-8) | GI50 (SF-268) | GI50 (SK-MEL-28) | GI50 (SK-MEL-2) | GI50 (SN12C) | GI50 (SNB-19) | GI50 (A498)
1 | CC(=O)OC1(C#N)CC2OC1C1C2N=NN1C(=O)OC(C)(C)C (stereo not drawn) | > 100 µM (inactive) | 12.5 µM (inactive) | 21.4 µM | > 100 µM (inactive) | 39.4 µM (inactive) | 35 µM (inactive) | 11.5 µM (inactive) | 21 µM (inactive) | > 100 µM (inactive) | 47.6 µM (inactive) | 54.6 µM (inactive) | 34.6 µM (inactive) | 37.1 µM (inactive) | 28.8 µM (inactive) | 23.4 µM (inactive) | 35.6 µM (inactive) |  | 
2 | NNc1nnc(-c2ccccc2)nc1Cc1ccccc1 | 4.04 µM (inactive) | 7.18 µM (inactive) | 4.13 µM | 2.69 µM (inactive) | 8.3 µM (inactive) | 10.9 µM (inactive) | 3.56 µM (inactive) | 8.57 µM (inactive) | 5.4 µM (inactive) | 3.61 µM (inactive) | 6.65 µM (inactive) | 4.52 µM (inactive) | 3.64 µM (inactive) | 7.71 µM (inactive) | 6.35 µM (inactive) | 5.79 µM (inactive) | 6.62 µM (inactive) | 
3 | COc1ccc(/C(Cl)=C(\C=O)c2ccccc2)cc1OC | 23.3 µM (inactive) | 23.4 µM (inactive) | 12.7 µM | 17.8 µM (inactive) | 28.1 µM (inactive) | > 100 µM (inactive) | 13.2 µM (inactive) | 36.1 µM (inactive) | 7.1 µM (inactive) | 10.3 µM (inactive) | > 100 µM (inactive) | 12.7 µM (inactive) | 33.1 µM (inactive) |  | 19.4 µM (inactive) | 11 µM (inactive) | 27.9 µM (inactive) | 
4 | Cc1cc2oc(-c3ccccc3)c(C)c(=O)c2c2c1OC(C)(C)S2 | > 100 µM (inactive) | 71 µM (inactive) | > 100 µM | > 100 µM (inactive) | 34.2 µM (inactive) | > 100 µM (inactive) | > 100 µM (inactive) | > 100 µM (inactive) | 72.3 µM (inactive) | > 100 µM (inactive) | > 100 µM (inactive) | > 100 µM (inactive) | > 100 µM (inactive) | 60.7 µM (inactive) | > 100 µM (inactive) | > 100 µM (inactive) | > 100 µM (inactive) | 
5 | COc1ccc(Nc2nc(C#N)c(N)s2)cc1 | 15.7 µM (inactive) | 33 µM (inactive) | 15.8 µM | 46.8 µM (inactive) | 46.8 µM (inactive) | 76.6 µM (inactive) | 21.4 µM (inactive) | 81.5 µM (inactive) | 22.8 µM (inactive) | > 100 µM (inactive) | > 100 µM (inactive) | 78.5 µM (inactive) | 19.9 µM (inactive) | > 100 µM (inactive) | 33.4 µM (inactive) | 30.7 µM (inactive) | 49 µM (inactive) | 
6 | O=C(O)NC(c1ccccc1)C(NC(=O)c1ccccc1)c1ccccc1 (stereo not drawn) | > 100 µM (inactive) | > 100 µM (inactive) | > 100 µM | > 100 µM (inactive) | > 100 µM (inactive) | > 100 µM (inactive) | 61.8 µM (inactive) |  |  | > 100 µM (inactive) | > 100 µM (inactive) | > 100 µM (inactive) | > 100 µM (inactive) | > 100 µM (inactive) | > 100 µM (inactive) | > 100 µM (inactive) | > 100 µM (inactive) | > 100 µM (inactive)
7 | OC1CCC[C@@H]1Sc1ccccc1 (stereo partly drawn) | > 100 µM (inactive) | > 100 µM (inactive) | > 100 µM | > 100 µM (inactive) |  |  | > 100 µM (inactive) | > 100 µM (inactive) |  | > 100 µM (inactive) |  | > 100 µM (inactive) | > 100 µM (inactive) | > 100 µM (inactive) | > 100 µM (inactive) | > 100 µM (inactive) | > 100 µM (inactive) | > 100 µM (inactive)
